# Assay results taken from PubChem BioAssay (NCI).
#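 Where inhibition never reached the appropriate level, the endpoint shown equals the highest concentration tested. Otherwise, values were interpolated linearly from a five-concentration, 48-hour dose response in 96-well plates. TGI is the concentration that stops growth completely.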
# How the values were obtained:
# Assay in all cases: NCI tumour cell line growth inhibition, 48 h
# HOP-18 NSCLC = test system: HOP-18 NSCLC
# SNB-19 CNS = test system: SNB-19 CNS
# HCT-15 colon = test system: HCT-15 colon
# 786-0 renal = test system: 786-0 renal
# HOP-62 NSCLC = test system: HOP-62 NSCLC
# SW-620 colon = test system: SW-620 colon
# A549 NSCLC = test system: A549 NSCLC
# ACHN renal = test system: ACHN renal
# M19-MEL melanoma = test system: M19-MEL melanoma
# UACC-257 melanoma = test system: UACC-257 melanoma
# SN12C renal = test system: SN12C renal
# COLO 205 colon = test system: COLO 205 colon
# K-562 leukemia = test system: K-562 leukemia
# UO-31 renal = test system: UO-31 renal
# HCT-116 colon = test system: HCT-116 colon
# CCRF-CEM leukemia = test system: CCRF-CEM leukemia
# DLD-1 colon = test system: DLD-1 colon
# NCI-H23 lung = test system: NCI-H23 lung
# TK-10 renal = test system: TK-10 renal
# SR leukemia = test system: SR leukemia
# LXFL 529 NSCLC = test system: LXFL 529 NSCLC
# HL-60(TB) leukemia = test system: HL-60(TB) leukemia
# IGROV1 ovarian = test system: IGROV1 ovarian
# SF-539 CNS = test system: SF-539 CNS
# SF-295 CNS = test system: SF-295 CNS
# RXF-631 renal = test system: RXF-631 renal
# RPMI-8226 leukemia = test system: RPMI-8226 leukemia
# SF-268 CNS = test system: SF-268 CNS
# LOX IMVI melanoma = test system: LOX IMVI melanoma
# OVCAR-4 ovarian = test system: OVCAR-4 ovarian
# MOLT-4 leukemia = test system: MOLT-4 leukemia
# NCI-H226 lung = test system: NCI-H226 lung
# NCI-H460 lung = test system: NCI-H460 lung
# OVCAR-3 ovarian = test system: OVCAR-3 ovarian
# DMS 273 small cell lung = test system: DMS 273 small cell lung
# U251 CNS = test system: U251 CNS
# HT29 colon = test system: HT29 colon
# OVCAR-5 ovarian = test system: OVCAR-5 ovarian
# OVCAR-8 ovarian = test system: OVCAR-8 ovarian
# RXF 393 renal = test system: RXF 393 renal
# SNB-75 CNS = test system: SNB-75 CNS
# CAKI-1 renal = test system: CAKI-1 renal
# HOP-92 NSCLC = test system: HOP-92 NSCLC
# KM20L2 colon = test system: KM20L2 colon
# KM12 colon = test system: KM12 colon
# M14 melanoma = test system: M14 melanoma
# HCC-2998 colon = test system: HCC-2998 colon
# EKVX NSCLC = test system: EKVX NSCLC
# UACC-62 melanoma = test system: UACC-62 melanoma
# SK-OV-3 ovarian = test system: SK-OV-3 ovarian
# XF 498 CNS = test system: XF 498 CNS
# NCI-H522 lung = test system: NCI-H522 lung
# SK-MEL-2 melanoma = test system: SK-MEL-2 melanoma
# A498 renal = test system: A498 renal
# MALME-3M melanoma = test system: MALME-3M melanoma
# SK-MEL-5 melanoma = test system: SK-MEL-5 melanoma
# SK-MEL-28 melanoma = test system: SK-MEL-28 melanoma
# DMS 114 small cell lung = test system: DMS 114 small cell lung
smiles,measurement,setting,value
COc1cc([C@@H]2c3cc4c(cc3C(N)C3COC(=O)[C@@H]32)OCO4)cc(OC)c1O (some centres undefined),TGI,HOP-18 NSCLC,> 100 µM
same,TGI,SNB-19 CNS,0.646 µM
same,TGI,HCT-15 colon,> 100 µM
same,TGI,786-0 renal,> 100 µM
same,TGI,HOP-62 NSCLC,> 100 µM
same,TGI,SW-620 colon,> 100 µM
same,TGI,A549 NSCLC,> 100 µM
same,TGI,ACHN renal,> 100 µM
same,TGI,M19-MEL melanoma,> 100 µM
same,TGI,UACC-257 melanoma,> 100 µM
same,TGI,SN12C renal,> 100 µM
same,TGI,COLO 205 colon,0.362 µM
same,TGI,K-562 leukemia,> 100 µM
same,TGI,UO-31 renal,> 100 µM
same,TGI,HCT-116 colon,> 100 µM
same,TGI,CCRF-CEM leukemia,> 100 µM
same,TGI,DLD-1 colon,> 100 µM
same,TGI,NCI-H23 lung,> 100 µM
same,TGI,TK-10 renal,> 100 µM
same,TGI,SR leukemia,0.428 µM
same,TGI,LXFL 529 NSCLC,> 100 µM
same,TGI,HL-60(TB) leukemia,0.555 µM
same,TGI,IGROV1 ovarian,> 100 µM
same,TGI,SF-539 CNS,0.586 µM
same,TGI,SF-295 CNS,> 100 µM
same,TGI,RXF-631 renal,0.606 µM
same,TGI,RPMI-8226 leukemia,> 100 µM
same,TGI,SF-268 CNS,> 100 µM
same,TGI,LOX IMVI melanoma,> 100 µM
same,TGI,OVCAR-4 ovarian,> 100 µM
same,TGI,MOLT-4 leukemia,1.17 µM
COc1ccc(S(=O)(=O)Nc2ccccc2C(=O)O)cc1,TGI,HOP-18 NSCLC,> 100 µM
same,TGI,SNB-19 CNS,> 100 µM
same,TGI,NCI-H226 lung,> 100 µM
same,TGI,HCT-15 colon,> 100 µM
same,TGI,NCI-H460 lung,> 100 µM
same,TGI,OVCAR-3 ovarian,> 100 µM
same,TGI,DMS 273 small cell lung,> 100 µM
same,TGI,786-0 renal,> 100 µM
same,TGI,SW-620 colon,> 100 µM
same,TGI,U251 CNS,> 100 µM
same,TGI,A549 NSCLC,> 100 µM
same,TGI,HT29 colon,> 100 µM
same,TGI,ACHN renal,> 100 µM
same,TGI,M19-MEL melanoma,> 100 µM
same,TGI,UACC-257 melanoma,> 100 µM
same,TGI,SN12C renal,> 100 µM
same,TGI,COLO 205 colon,> 100 µM
same,TGI,OVCAR-5 ovarian,> 100 µM
same,TGI,K-562 leukemia,> 100 µM
same,TGI,UO-31 renal,> 100 µM
same,TGI,OVCAR-8 ovarian,> 100 µM
same,TGI,RXF 393 renal,> 100 µM
same,TGI,SNB-75 CNS,> 100 µM
same,TGI,CAKI-1 renal,> 100 µM
same,TGI,CCRF-CEM leukemia,> 100 µM
same,TGI,DLD-1 colon,> 100 µM
same,TGI,NCI-H23 lung,> 100 µM
same,TGI,HOP-92 NSCLC,> 100 µM
same,TGI,TK-10 renal,> 100 µM
same,TGI,KM20L2 colon,> 100 µM
same,TGI,KM12 colon,> 100 µM
same,TGI,LXFL 529 NSCLC,> 100 µM
same,TGI,M14 melanoma,> 100 µM
same,TGI,HCC-2998 colon,> 100 µM
same,TGI,EKVX NSCLC,> 100 µM
same,TGI,UACC-62 melanoma,> 100 µM
same,TGI,HL-60(TB) leukemia,> 100 µM
same,TGI,IGROV1 ovarian,> 100 µM
same,TGI,SK-OV-3 ovarian,> 100 µM
same,TGI,SF-539 CNS,> 100 µM
same,TGI,SF-295 CNS,> 100 µM
same,TGI,XF 498 CNS,> 100 µM
same,TGI,RXF-631 renal,> 100 µM
same,TGI,NCI-H522 lung,> 100 µM
same,TGI,SK-MEL-2 melanoma,> 100 µM
same,TGI,RPMI-8226 leukemia,> 100 µM
same,TGI,SF-268 CNS,> 100 µM
same,TGI,A498 renal,> 100 µM
same,TGI,LOX IMVI melanoma,> 100 µM
same,TGI,MALME-3M melanoma,> 100 µM
same,TGI,OVCAR-4 ovarian,> 100 µM
same,TGI,MOLT-4 leukemia,> 100 µM
same,TGI,SK-MEL-5 melanoma,> 100 µM
same,TGI,SK-MEL-28 melanoma,> 100 µM
CCCCCC(=O)C(C)C1=Nc2nnc(CCCCCCCc3nnc4n3C(=O)C(C(C)C(=O)CCCCC)=N4)n2C1=O (centres undefined),TGI,HOP-18 NSCLC,> 100 µM
same,TGI,SNB-19 CNS,> 100 µM
same,TGI,NCI-H226 lung,> 100 µM
same,TGI,HCT-15 colon,> 100 µM
same,TGI,NCI-H460 lung,> 100 µM
same,TGI,OVCAR-3 ovarian,> 100 µM
same,TGI,DMS 114 small cell lung,> 100 µM
same,TGI,786-0 renal,> 100 µM
same,TGI,HOP-62 NSCLC,> 100 µM
same,TGI,SW-620 colon,> 100 µM
same,TGI,U251 CNS,> 100 µM
same,TGI,A549 NSCLC,> 100 µM
same,TGI,HT29 colon,> 100 µM
same,TGI,ACHN renal,> 100 µM
same,TGI,M19-MEL melanoma,> 100 µM
same,TGI,UACC-257 melanoma,> 100 µM
same,TGI,SN12C renal,> 100 µM
same,TGI,COLO 205 colon,> 100 µM
same,TGI,OVCAR-5 ovarian,> 100 µM
same,TGI,K-562 leukemia,> 100 µM
same,TGI,UO-31 renal,> 100 µM
same,TGI,OVCAR-8 ovarian,> 100 µM
same,TGI,HCT-116 colon,> 100 µM
same,TGI,RXF 393 renal,> 100 µM
same,TGI,SNB-75 CNS,> 100 µM
same,TGI,CAKI-1 renal,> 100 µM
same,TGI,CCRF-CEM leukemia,> 100 µM
same,TGI,DLD-1 colon,> 100 µM
same,TGI,NCI-H23 lung,> 100 µM
same,TGI,TK-10 renal,> 100 µM
same,TGI,KM20L2 colon,> 100 µM
same,TGI,KM12 colon,> 100 µM
same,TGI,SR leukemia,> 100 µM
same,TGI,LXFL 529 NSCLC,> 100 µM
same,TGI,M14 melanoma,> 100 µM
same,TGI,HCC-2998 colon,> 100 µM
same,TGI,EKVX NSCLC,> 100 µM
same,TGI,UACC-62 melanoma,> 100 µM
same,TGI,HL-60(TB) leukemia,> 100 µM
same,TGI,IGROV1 ovarian,> 100 µM
same,TGI,SK-OV-3 ovarian,> 100 µM
same,TGI,SF-539 CNS,> 100 µM
same,TGI,SF-295 CNS,> 100 µM
same,TGI,XF 498 CNS,> 100 µM
same,TGI,RXF-631 renal,> 100 µM
same,TGI,NCI-H522 lung,> 100 µM
same,TGI,RPMI-8226 leukemia,> 100 µM
same,TGI,SF-268 CNS,> 100 µM
same,TGI,LOX IMVI melanoma,> 100 µM
same,TGI,MALME-3M melanoma,> 100 µM
same,TGI,OVCAR-4 ovarian,> 100 µM
same,TGI,MOLT-4 leukemia,> 100 µM
same,TGI,SK-MEL-5 melanoma,> 100 µM
same,TGI,SK-MEL-28 melanoma,> 100 µM
CCOC(=O)C1(C/C=C(/C)Cl)CCCC1=O (centres undefined),TGI,HOP-18 NSCLC,> 100 µM
same,TGI,SNB-19 CNS,> 100 µM
same,TGI,NCI-H226 lung,> 100 µM
same,TGI,HCT-15 colon,> 100 µM
same,TGI,NCI-H460 lung,> 100 µM
same,TGI,OVCAR-3 ovarian,> 100 µM
same,TGI,DMS 273 small cell lung,> 100 µM
same,TGI,DMS 114 small cell lung,> 100 µM
same,TGI,786-0 renal,> 100 µM
same,TGI,HOP-62 NSCLC,> 100 µM
same,TGI,U251 CNS,> 100 µM
same,TGI,A549 NSCLC,> 100 µM
same,TGI,HT29 colon,> 100 µM
same,TGI,ACHN renal,> 100 µM
same,TGI,M19-MEL melanoma,> 100 µM
same,TGI,UACC-257 melanoma,> 100 µM
same,TGI,SN12C renal,> 100 µM
same,TGI,COLO 205 colon,> 100 µM
same,TGI,OVCAR-5 ovarian,> 100 µM
same,TGI,K-562 leukemia,> 100 µM
same,TGI,UO-31 renal,> 100 µM
same,TGI,OVCAR-8 ovarian,> 100 µM
same,TGI,HCT-116 colon,> 100 µM
same,TGI,RXF 393 renal,> 100 µM
same,TGI,SNB-75 CNS,> 100 µM
same,TGI,CAKI-1 renal,> 100 µM
same,TGI,CCRF-CEM leukemia,> 100 µM
same,TGI,DLD-1 colon,> 100 µM
same,TGI,NCI-H23 lung,> 100 µM
same,TGI,TK-10 renal,> 100 µM
same,TGI,KM20L2 colon,> 100 µM
same,TGI,KM12 colon,> 100 µM
same,TGI,SR leukemia,45.7 µM
same,TGI,LXFL 529 NSCLC,> 100 µM
same,TGI,M14 melanoma,> 100 µM
same,TGI,EKVX NSCLC,> 100 µM
same,TGI,UACC-62 melanoma,> 100 µM
same,TGI,HL-60(TB) leukemia,> 100 µM
same,TGI,IGROV1 ovarian,> 100 µM
same,TGI,SK-OV-3 ovarian,> 100 µM
same,TGI,SF-539 CNS,> 100 µM
same,TGI,SF-295 CNS,> 100 µM
same,TGI,XF 498 CNS,> 100 µM
same,TGI,RXF-631 renal,> 100 µM
same,TGI,NCI-H522 lung,> 100 µM
same,TGI,SK-MEL-2 melanoma,> 100 µM
same,TGI,RPMI-8226 leukemia,53.6 µM
same,TGI,SF-268 CNS,> 100 µM
same,TGI,A498 renal,> 100 µM
same,TGI,LOX IMVI melanoma,> 100 µM
same,TGI,MALME-3M melanoma,> 100 µM
same,TGI,OVCAR-4 ovarian,> 100 µM
same,TGI,MOLT-4 leukemia,> 100 µM
same,TGI,SK-MEL-5 melanoma,> 100 µM
same,TGI,SK-MEL-28 melanoma,> 100 µM
